Reference: US9951049B2, “Pyrazole linked benzimidazole conjugates and a process for preparation thereof” (Council of Scientific & Industrial Reseach, priority 2014, dated 2018)
Entries after “also recorded” stand apart in the source; their conditions may differ. Read-outs that look alike come from different tables or passages of the source.

How the values were obtained:
SR = test: NCI SRB screen, SR; conditions: Homo sapiens, 48 h, read-out: GI50 values
M14 = test: NCI SRB screen, M14; conditions: Homo sapiens, M14, 48 h, read-out: GI50 values
U251 = test: NCI SRB screen, U251; conditions: Homo sapiens, U-251, 48 h, read-out: GI50 values
PC-3 = test: NCI SRB screen, PC-3; conditions: Homo sapiens, PC-3, 48 h, read-out: GI50 values
MCF7 = test: NCI SRB screen, MCF7; conditions: Homo sapiens, MCF7, 48 h, read-out: GI50 values
786-0 = test: NCI SRB screen, 786-0; conditions: Homo sapiens, 786-0, 48 h, read-out: GI50 values
TK-10 = test: NCI SRB screen, TK-10; conditions: Homo sapiens, TK-10, 48 h, read-out: GI50 values
T-47D = test: NCI SRB screen, T-47D; conditions: Homo sapiens, T47D, 48 h, read-out: GI50 values
HCT-15 = test: NCI SRB screen, HCT-15; conditions: Homo sapiens, HCT-15, 48 h, read-out: GI50 values
SF-268 = test: NCI SRB screen, SF-268; conditions: Homo sapiens, SF-268, 48 h, read-out: GI50 values
SNB-19 = test: NCI SRB screen, SNB-19; conditions: Homo sapiens, SNB-19, 48 h, read-out: GI50 values
SNB-75 = test: NCI SRB screen, SNB-75; conditions: Homo sapiens, SNB-75, 48 h, read-out: GI50 values
HCT-116 = test: NCI SRB screen, HCT-116; conditions: Homo sapiens, HCT-116, 48 h, read-out: GI50 values
UACC-62 = test: NCI SRB screen, UACC-62; conditions: Homo sapiens, UACC-62, 48 h, read-out: GI50 values
OVCAR-8 = test: NCI SRB screen, OVCAR-8; conditions: Homo sapiens, OVCAR-8, 48 h, read-out: GI50 values
SK-OV-3 = test: NCI SRB screen, SK-OV-3; conditions: Homo sapiens, SK-OV-3, 48 h, read-out: GI50 values
NCI-H226 = test: NCI SRB screen, NCI-H226; conditions: Homo sapiens, NCI-H226, 48 h, read-out: GI50 values
NCIH322M = test: NCI SRB screen, NCIH322M; conditions: Homo sapiens, NCI-H322M, 48 h, read-out: GI50 values
NCI-H522 = test: NCI SRB screen, NCI-H522; conditions: Homo sapiens, NCI-H522, 48 h, read-out: GI50 values, Non-small cell lung, NCI-H522
MALME-3M = test: NCI SRB screen, MALME-3M; conditions: Homo sapiens, 48 h, read-out: GI50 values
SK-MEL-5 = test: NCI SRB screen, SK-MEL-5; conditions: Homo sapiens, SK-MEL-5, 48 h, read-out: GI50 values, Melanoma, SK-MEL-5
UACC-257 = test: NCI SRB screen, UACC-257; conditions: Homo sapiens, UACC-257, 48 h, read-out: GI50 values
UACC-254 = test: NCI SRB screen, UACC-254; conditions: Homo sapiens, read-out: GI50 values
RPMI-8226 = test: NCI SRB screen, RPMI-8226; conditions: Homo sapiens, RPMI-8226, 48 h, read-out: GI50 values
NCI/ADR-RES = test: NCI SRB screen, NCI/ADR-RES; conditions: Homo sapiens, 48 h, read-out: GI50 values
Colon cancer cell lines = test: NCI SRB screen, Colon panel average; conditions: Homo sapiens, 48 h, read-out: Log10 GI50 (converted)
Renal cancer cell lines = test: NCI SRB screen, Renal panel average; conditions: Homo sapiens, 48 h, read-out: Log10 GI50 (converted)
[1] = test system: Ovarian cancer cell lines; test: NCI SRB screen, Ovarian panel average; conditions: Homo sapiens, 48 h, read-out: Log10 GI50 (converted)
Leukemia cell lines = test: NCI SRB screen, Leukemia panel average; conditions: Homo sapiens, 48 h, read-out: Log10 GI50 (converted)
Melanoma cell lines = test: NCI SRB screen, Melanoma panel average; conditions: Homo sapiens, 48 h, read-out: Log10 GI50 (converted)
MDA-MB-435 [2] = test: NCI SRB screen, MDA-MB-435 (Breast panel); conditions: Homo sapiens, MDA-MB-435, 48 h, read-out: GI50 values
MDA-MB-435 [3] = test: NCI SRB screen, MDA-MB-435 (Melanoma panel); conditions: Homo sapiens, MDA-MB-435, 48 h, read-out: GI50 values
[4] = test system: fifty six human tumor cell lines; test: NCI human tumor cell line screen (48 h, SRB), all cell lines; conditions: for GI50: Homo sapiens

Fc1ccc2[nH]c(-c3cc(-c4ccc5c(c4)OCO5)n[nH]3)nc2c1 [7g, 2-(3-(benzo[d][1,3]dioxol-5-yl)-1H-pyrazol-5-yl)-5-fluoro-1H-benzo[d]imidazole]
GI50 (SR): 4.95 µM | GI50 (M14): 4.17 µM | GI50 (U251): 2.78 µM | GI50 (PC-3): 3.78 µM | GI50 (MCF7): 3.53 µM | GI50 (786-0): 7.13 µM | GI50 (TK-10): 1.3 µM | GI50 (T-47D): 3.21 µM | GI50 (HCT-15): 3.73 µM | GI50 (SF-268): 6.05 µM | GI50 (SNB-19): 10 µM | GI50 (SNB-75): 2.8 µM | GI50 (HCT-116): 4.5 µM | GI50 (UACC-62): 4.77 µM | GI50 (OVCAR-8): 3.43 µM | GI50 (SK-OV-3): 1.24 µM | GI50 (NCI-H226): 4.21 µM | GI50 (NCIH322M): 6.88 µM | GI50 (NCI-H522): 2.56 µM | GI50 (MALME-3M): 2.75 µM | GI50 (SK-MEL-5): 1.46 µM | GI50 (UACC-257): 1.02 µM | GI50 (UACC-254): 1.02 µM | GI50 (RPMI-8226): 1.09 µM | GI50 (NCI/ADR-RES): 4.43 µM | GI50 (Colon cancer cell lines): 5.37 µM | GI50 (Renal cancer cell lines): 4.57 µM | GI50 [1]: 6.17 µM | GI50 (Leukemia cell lines): 2.95 µM | GI50 (Melanoma cell lines): 4.57 µM | GI50 (MDA-MB-435 [2]): 4.14 µM | GI50 (MDA-MB-435 [3]): 5.43 µM | GI50 ([4]; read-out: GI50 value range): 0.34 to 10 µM | GI50 ([4]; read-out: Log10 GI50 mean graph midpoint (MG_MID) (converted)): 4.79 µM | anticancer activity (in words) ([4]; human cancer cell lines of the NCI panel): significant anticancer activity; also recorded: pronounced activities | Log10 TGI mean graph midpoint (MG_MID) ([4]; human tumor cell lines, mean over the panel, total growth inhibition): −4.19
